Earlier results, collected in patent publication US20080132413A1, “Methods for the Improvement of Plant Tolerance Towards Glyphosate” (Bayer Cropscience AG, priority 2004, published 2008).

System: glyphosate-resistant cotton (Roundup Ready Cotton)

In the case of `O=[N+]([O-])/N=C1\NCCN1Cc1ccc(Cl)nc1` [imidacloprid], the “increase in buds compared to a control not treated with imidacloprid” value (glyphosate treatment at the 4 leaf stage, after 45 days) is given as 18%, the “sum of the counts of buds and bolls versus untreated control” value (glyphosate treatment at the 4 leaf stage, after 62 days) is given as “matched that of the untreated control” and the “minus of buds compared to the control not treated with imidacloprid” value (glyphosate treatment at the 6 leaf stage, after 40 days) is given as 14%. The “sum of the counts of buds and bolls (yield) greater than that of the untreated control” value (glyphosate treatment at the 6 leaf stage, after 57 days) was “about 14%”.
